The text below walks through data of patent US11357743B2, “Ketamine and propofol admixture” (Mayo Foundation for Medical Education and Research, priority 2017, dated 2022).

Series [1] can be described thus: Nursing and patient assessment surveys after induction of general anesthesia with propofol or ketofol (randomized, double-blinded controlled trial). An excerpt: 85 patients of ASA Class 1-2 scheduled for surgical procedures that involved general anesthesia were assigned to one of two arms, one involving induction with propofol and the other involving induction with “ketofol” (a ketamine/propofol combination) in a randomized, double-blinded controlled trial. Patients were placed on standard ASA monitors including a BIS monitor and a noninvasive cardiac output monitor (NICOM) prior to induction of general anesthesia.
One minute before induction, baseline hemodynamics were recorded with standard ASA monitors as well as with the NICOM. Providers were given one 20 ml syringe and one 10 ml syringe for rescue if needed. As part of the induction, fentanyl (1-2 mcg/kg) and any relaxant excluding succinylcholine and pancuronium was given. The 20 ml syringe in both groups looked identical, appeared to be propofol but depending on the group they were randomized to, it represented either 2 mg/kg of propofol (propofol group) or 0.75 mg/kg of ketamine and 1.5 mg/kg of propofol (“ketofol” group). The 10 ml rescue syringe, if used, represented 1 mg/kg of propofol (propofol group) or 0.25 mg/kg of ketamine and 0.5 mg/kg of propofol (“ketofol” group). Hemodynamics were recorded every minute for a total of 30 minutes post-induction. During this time, anesthesia was maintained with any volatile agent excluding nitrous oxide. […] Patients were given survey questions that centered on emergence, discharge times, pain control, and nausea/vomiting. In addition, nurses were also asked to fill out a survey which dealt with similar questions.

Series [2] in a line: Ketofol vs etomidate for emergent endotracheal intubation in critically ill patients (randomized clinical trial). It is filed as in vivo, human. To be noted: share of group.
Where [3] appears, read: Likert scaled responses from 0 (strongly disagree) to 7 (strongly agree).
The mark [4] stands for this setting: Likert scaled responses from 0 (very poorly) to 7 (perfectly).

For the compound `CC(C)c1cccc(C(C)C)c1O` [Propofol, 2,6-diisopropylphenol], in series [1] (setting [3]), the “Patient Assessment: Emergence (woke up well), Mean” value is 5.5; the “Patient Assessment: No PONV, Mean” value came out at 5.5; the “Patient Assessment: No Pain, Mean” value was determined as 3.8. Further, in series [1] (setting [4]), the “Nursing Assessment: Discharge (from unit), Mean” value is on record as 5.1 and the “Nursing Assessment: Emergence (wake up), Mean” value is reported as 5.4. In addition, the “Nursing Assessment: Protection from PONV, Mean” value in series [1] (Likert scaled responses from 0 (very poorly) to 7 (perfectly), PONV = post-operative nausea/vomiting) came out at 5.5.

With `CCOC(=O)c1cncn1[C@H](C)c1ccccc1` [etomidate], the “Serious adverse events reported” value in series [2] worked out at 5%.
